{
  "source": "patent US9394338B2",
  "about": "“Glutathione analogs and uses thereof” (REGENTS OF THE UNIVERSITY OF MINNESOTA, priority 2011, dated 2016)",
  "type_in_all_cases": "in vivo",
  "key": {"[1]": {"system": "C57BL/6 mice", "experiment": "Short-term toxicity / dose determination study", "conditions": "i.p. 3×/week for two weeks, highest dose 2000 mg/Kg", "protocol": "Dose Determination Study: Ψ-GSH was injected intraperitoneally and orally in wild type C57BL/6 mice (6-8 week old, 4/group) three times a week for two weeks. The doses of Ψ-GSH employed ranged from 100 mg/kg to 2000 mg/kg. Body weight (twice a week), complete blood count (CBC) analysis and liver, kidney and lung histology was considered to be indicative of toxicity from the drug treatment. Histological sections of tissue were analyzed by a board-certified pathologist at the Masonic Cancer Center-Comparative Pathology Shared Resource, University of Minnesota."}, "[2]": {"system": "APP/PS1 mice", "experiment": "Morris water maze", "conditions": "for escape latency, hidden platform: 500 mg/Kg i.p. 3×/week", "protocol": "(§1) Efficacy Study Design. To determine the effect of intraperitoneal and oral Ψ-GSH treatment, the study was divided in four groups (10 mice/group). 1. APP/PS1 mice-vehicle control, 2. APP/PS1 mice-Ψ-GSH i.p. 500 mg/kg, 3. APP/PS1 mice-Ψ-GSH oral 500 mg/kg, 4. Non-transgenic wild type mice-vehicle control. All the animals in the above-said groups were treated with saline or Ψ-GSH three times a week for 12 weeks, starting at the age of three to four months. Eleven weeks after the start of the treatment, the animals were tested in the Morris water maze, and twelve weeks after the start of the treatment, the animals were sacrificed for histopathological analysis.\nBehavior Study. Eleven weeks after the beginning of the treatment, the animals were tested for one week in an open field water maze. The maze consists of a white circular tank (120 cm diameter) of water (23±1° C.) rendered opaque with nontoxic crayola paint. The mice were placed in the water at the edge of the pool and allowed to swim in order to locate a hidden, but fixed escape platform, using extra-maze cues.\nOn Day 1, the mice were be placed in the pool and allowed to swim freely for 60 s. If an animal could not locate the hidden platform within that time, it was placed manually upon the platform and left there for 10 s. Each animal was tested in four trials per day. The inter-trial interval was 15 min. Each start position was used equally in a pseudorandom order, and the animals were always placed in the water facing the wall. The platform was placed in the middle of northeast quadrant of the pool (approximately 30 cm from the side of the pool). The mouse's task throughout the experiment was to find and climb onto the platform, escaping the water. Once the mouse learned the task (Day 4, Trial 16), a probe trial was conducted 24 hours after the last trial of acquisition on Day 4.\nIn the probe trial (i.e., Trial 17, day 5), the platform was removed from the pool and animals were allowed to swim for 60 s. Their ability to remember the location of the previously present escape platform was quantified in proportion to the residence time of the mouse in the quadrant previously containing the platform. Immediately following the probe trial, visible platform was reintroduced at a different location (i.e southeast quadrant) along with a visible flag. Mice were trained to locate this cued platform in 4 trials conducted in the aforementioned manner."}, "[3]": {"system": "APP/PS1 mice", "experiment": "Amyloid-β1-42 ELISA of brain homogenate", "protocol": "as §1\nAmyloid-β1-42 ELISA. Total Aβ^1-42 in the brain was quantified by sandwich ELISA (Invitrogen, Carlsbad, Calif.) according to the manufacturer's instructions. Wild type and transgenic Alzheimer's mice brains were Dounce homogenized in phosphate buffered saline (PBS), pH 7.2, containing a mixture of protease inhibitors. Brain homogenates were centrifuged and supernatants were assayed for soluble Aβ^1-42 per manufacturers' protocols. […] The concentration of both PBS soluble and insoluble (guanidine soluble) Aβ^1-42 was calculated from a standard curve of human Aβ^1-42 and was normalized to the weight of the tissue employed."}, "[4]": {"system": "APP/PS1 mice", "experiment": "Brain protein carbonyl determination", "protocol": "as §1\nProtein Carbonyl Determination. Brains were homogenized in cold buffer (50 mM phosphate, pH 7.0, containing 1 mM EDTA containing protease inhibitors) and centrifuged at 10,000×g for 15 min at 4° C. The supernantent was mixed with 0.5 ml of 10 mM 2,4-dinitrophenylhydrazine (DNPH)/2 M HCL (or 2 M HCl alone for blanks). Samples were placed in a sample holder and incubated in the dark at room temperature for one hour vortexing intermittently. […] The concentration of DNPH was determined at its maximum wavelength (360 nm) and the molar absorption coefficient of 22,000 M^−1 cm^−1 was used to quantify the levels of protein carbonyls. Total protein concentration was determined by BCA protein assay kit (Pierce, Rockford, Ill.). […]"}, "[5]": {"system": "APP/PS1 mice", "experiment": "Brain ROS assay (DCFH-DA)", "protocol": "as §1\nROS Assay. ROS levels were quantified via the 2′-7′-dichlorofluorescein-diacetate (DCFH-DA) assay. […] The reaction was then stopped by placing it on ice and the formation of oxidized fluorescent 2′-7′-dichlorofluorescein (DCF) was measured with a fluorescence plate reader (BioTek SynergyHT, VT, USA) using excitation and emission wavelengths at 488 and 525 nm, respectively. The final results were corrected for protein concentration and then expressed as percentage of the corresponding values in saline treated wild-type mice. All steps were performed in the dark and DCF formation was also monitored immediately after DCFH-DA was added to the homogenate (t=0 min) in order to subtract background autofluorescence."}},
  "data": [
    {"smiles": "N[C@@H](CNC(=O)N[C@@H](CS)C(=O)NCC(=O)O)C(=O)O", "note": "[Ψ-GSH, γ-Gla-Cys-Gly-OH]", "values": [
      {"measurement": "ALT, AST, ALP, blood urea nitrogen (BUN) and creatinine levels", "setting": "[1]", "result": "Unaffected"},
      {"measurement": "Body weights and CBC", "setting": "[1]", "result": "insignificantly affected"},
      {"measurement": "Histopathology of lung, liver and kidney tissue vs saline-treated mice", "setting": "[1]", "result": "no significant difference"},
      {"measurement": "escape latency, hidden platform", "setting": "[2]; APP-PS1 mice, day 3 of training", "result": "17.91 ± 4.65", "unit": "s"},
      {"measurement": "escape latency, hidden platform", "setting": "[2]; APP-PS1 mice, day 4 of training", "result": "14.64 ± 2.61", "unit": "s"},
      {"measurement": "time in the target quadrant, probe trial", "setting": "[2]; APP-PS1 mice, i.p., 24 h after training", "result": "38.43±3.73", "unit": "%"},
      {"measurement": "path length", "setting": "[2]; APP-PS1 mice, i.p., last day of training", "result": "2.69±0.47", "unit": "m"},
      {"measurement": "Path lengths vs saline-treated controls", "setting": "[2]; APP-PS1 mice, oral", "result": "insignificantly different"},
      {"measurement": "escape latency, visible platform", "setting": "[2]; APP/PS1 mice, i.p., end of four trials", "result": "6.75 ± 1.49", "unit": "s"},
      {"measurement": "time in the target quadrant, probe trial", "setting": "[2]; APP/PS1 mice, oral", "result": "21.76±5.36", "unit": "%"},
      {"measurement": "spatial memory development and escape latencies vs saline-treated group", "setting": "[2]; APP/PS1 mice, oral 3×/week for 3 months, significant (p<0.05) on day 2 only", "result": "Trends toward higher spatial memory development and lower escape latencies"},
      {"measurement": "insoluble Aβ1-42 in brain", "setting": "[3]; i.p.", "result": "45.4±6.01 % of vehicle-treated APP/PS1 mice"},
      {"measurement": "insoluble Aβ1-42 concentration in brain", "setting": "[3]; oral", "result": "90.80±6.72 % of vehicle treated APP/PS1 mice"},
      {"measurement": "Protein carbonyls in brain (WT saline = 100%)", "setting": "[4]; i.p.", "result": "97.8±6.30", "unit": "%"},
      {"measurement": "levels of protein carbonylation", "setting": "[4]; oral", "result": "unaffected"},
      {"measurement": "total brain ROS levels, increase over WT mice", "setting": "[5]; i.p.", "result": 6, "unit": "%"},
      {"measurement": "levels of ROS", "setting": "[5]; oral", "result": "unaffected"}
    ]}
  ]
}
